Laboratory results published in US20120305840A1, “CARBON DIOXIDE ABSORBING SOLUTION” (Kabushiki Kaisha Toshiba, priority 2009, published 2012).

Experiments:
[1] = Volatility: decreased amount of absorbent by 1H-NMR after heating; assay type: physicochemical; conditions: 60 minutes at 140° C.
Description: According to the decreased amount, the volatility was evaluated. The less the decreased amount was, the less volatile the absorbent was regarded as. In general, if containing a less volatile absorbent, the absorbing solution can be repeatedly regenerated without decrease of the absorbent content.

[2] = Precipitation in the absorbing solution after absorbing carbon dioxide; assay type: physicochemical

SMILES	volatility of the absorbent (in words) [1]	precipitation in the absorbing solutions on absorbing carbon dioxide to form products [2]
O=C([O-])C1CNC1.[K+] [absorbent 1, potassium 1-aza-azetidine-3-carboxylate]	hardly volatilize	did not precipitate
O=C([O-])C1CCCN1.[K+] (stereo not shown) [absorbent 2, pyrrolidine-2-carboxylic acid salt]	hardly volatilize	did not precipitate
